Patent US20250268953A1, “COMPOSITIONS AND METHODS FOR TREATING DISEASE II” (MICROBA IP PTY LTD, priority 2021, published 2025)
“Also recorded” adds a separate entry of the source.

Key:
DSS treated C57Bl/6 mice = assay: Acute model of DSS induced murine colitis (gut barrier dysfunction); assay type: in vivo; details: 3% DSS six days; for DSS induced weight loss / epithelial injury / pathology / histopathological healing (histopathological score): vs DSS+vehicle
[1] = tested on: IL-6-mediated activation of STAT3; assay: HEK-Blue IL-6 reporter cell line, STAT3-responsive SEAP reporter; assay type: cell-based, human; details: control Janus kinase inhibitor at 10 μM; IL-6 2 ng/mL, 24 hours
Procedure: STAT3 activity was assessed using the HEK Blue IL-6 cell line (Invivogen). Briefly, 50,000 cells per well were seeded in triplicate in a 96-well plate 24 hours prior to the start of the assay. Bacteria supernatant or sterile bacterial medium were added to the cells at a final concentration of 10% v/v for a 60-minute pretreatment. Then recombinant human IL 6 (R&D systems) was added at a final concentration of 2 ng/mL and the cells were incubated at 37° C. for 24 hours. The ability of the supernatants to suppress IL-6 mediated STAT3 activation was compared to the Janus kinase inhibitor tofacitinib (10 μM). After 24 hours, the STAT3 regulated SEAP reporter activity was assessed using Quanti Blue solution as recommended by the manufacturer (Invivogen). Results are the average of three independent experiments. Cytotoxicity was assessed using the CellTiter-Glo® 2.0 Cell Viability Assay (Promega, Australia) as recommended by the manufacturer.

[2] = tested on: IL-23-mediated activation of STAT3; assay: HEK-Blue IL-23 reporter cell line, STAT3 inducible SEAP reporter; assay type: cell-based, human; details: control Janus kinase inhibitor at 10 μM; rhIL-23 5 ng/mL, 6 hours
Procedure: Then, each seed culture broth was used to inoculate two technical replicates each generating six technical replicates from three biological replicates. The technical replicates were grown until early stationary phase and then cell free culture supernatant was harvested as previously described (Giri et al., 2019). Culture supernatants were size fractionated by passing through a 3 kDa CENTRICON® column according to the manufacturer's (Merck Millipore) instructions. To prepare A. shahii MH21-6 supernatant samples for assay, a seed culture was established from a single colony and grown until early stationary phase. Then, the seed culture broth was used to inoculate two technical replicates. […]
STAT3 activity was assessed using the HEK Blue IL-23 cell line (Invivogen). […] STAT3 regulated SEAP reporter activity was assessed using Quanti Blue solution as recommended by the manufacturer (Invivogen). […] Cytotoxicity was assessed using an MTT assay. […] Cytotoxicity was assessed by measuring absorbance at 540 nm as recommended by the manufacturer (Invitrogen, Thermo Fisher, Australia). […]
STAT3 activity was assessed using the HEK Blue IL-23 cell line (Invivogen). […] STAT3 regulated SEAP reporter activity was assessed using Quanti Blue solution as recommended by the manufacturer (Invivogen). […] Cytotoxicity was assessed using MTT assay. […]

[3] = Example 3 (G. formicilis) study

C[C@]12C=CC(=O)C=C1CC[C@@H]1[C@@H]2C(=O)C[C@@]2(C)[C@H]1CC[C@]2(O)C(=O)CO [prednisone]
DSS induced weight loss (DSS treated C57Bl/6 mice; Example 1 (A. shahii) study, daily treatment): exacerbated the DSS induced weight loss | goblet cells (DSS treated C57Bl/6 mice; Example 1 (A. shahii) study, relative to vehicle treated control): ameliorated | epithelial injury (DSS treated C57Bl/6 mice; Example 1 (A. shahii) study): ameliorated | pathology / histopathological healing (histopathological score) (DSS treated C57Bl/6 mice; Example 1 (A. shahii) study): significant improvement in disease pathology | epithelial injury (DSS treated C57Bl/6 mice; Example 2 (C. sana) study): Neither prednisone nor F. prausnitzii A2-165 had a significant impact | pathology / histopathological healing (histopathological score) (DSS treated C57Bl/6 mice; Example 2 (C. sana) study): Neither prednisone nor F. prausnitzii A2-165 had a significant impact | DSS induced weight loss (DSS treated C57Bl/6 mice; [3]): exacerbated the DSS induced weight loss | epithelial injury (DSS treated C57Bl/6 mice; [3]): ameliorated | pathology / histopathological healing (histopathological score) (DSS treated C57Bl/6 mice; [3]): significant improvement in disease pathology

C[C@@H]1CCN(C(=O)CC#N)C[C@@H]1N(C)c1ncnc2[nH]ccc12 [tofacitinib]
IL-6 mediated activation of STAT3 [1]: fully prevented | IL-23 mediated activation of STAT3 (SEAP expression) [2]: could be prevented; also recorded: inhibited IL-23 mediated SEAP expression
